Test results reported in patent US20230248717A1, “N-(3-HYDROXYPYRIDINE-2-CARBONYL)GLYCINE-BASED ANTITUMOR DRUG SENSITIZER AND APPLICATION THEREOF” (ZHEJIANG UNIVERSITY, priority 2019, published 2023).
≈ marks a conversion by molar mass, not a printed value. Read-outs that look alike come from different tables or passages of the source.

Legend:
[1] = system: CT26 mouse colon cancer cells; assay: Cytotoxicity (MTT) in combination with chemotherapeutic drugs;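 also: MTT read-out taken as absorbance at 562 nm after a 3 h dye incubation, medium-only wells as blank, values averaged over three independent experiments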
Protocol: (§1) CT26 cells (MC38 cells, 4T1 cells, B16FIO cells, HePa1-6 cells, H22 cells, LLC cells, MB49 cells, P388 cells, C6 cells, BXPC-3 cells, Hela cells, MDA-MB-231 cells, A2780 cells. PC3 cells. HepG2 cells, and HGC-27 cells) were cultured at 5,000 cells/well in a 96-well plate, 100 μL of a medium was added to each well, and the cells were incubated in a 37° C. constant-temperature incubator with 5% CO2 and 95% humidity for 24 h. 100 μL of different concentrations of drugs (DOX: 0.01 μg/mL to 10 μg/mL; PTX: 0.01 μg/mL to 50 μg/mL; Cela: 0.05 μg/mL to 1 μg/mL; sensitizer: 5 μg/mL) were added to each well, while 100 lit of a medium solution was added to the blank group. After culturing for 48 h, centrifugation was conducted at 1,100 rpm for 6 min, the medium in each well was discarded, 100 μL of an 11,11T working solution was added, and the culturing was continued for 3 h. Centrifugation was conducted at 3,300 rpm. for 5 min, the MITT medium in each well was discarded, 100 pt, of the DMSO was added, and the plate was shaken for 5 min to dissolve all crystals in each well. An absorbance of the sample at 562 nm was detected by a microplate reader. Each set of data was an average of three independent experimental results on the same sample.

[2] = system: CT26 mouse colon cancer cells;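 also: MTT read-out taken as absorbance at 562 nm after a 3 h dye incubation, medium-only wells as blank, values averaged over three independent experiments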
Protocol: as §1

[3] = system: PD-L1 expression in CT26 cells; assay: PD-L1 expression in tumor cells by Western blot; format: cell-based, mouse; conditions: 5 μM, 48 h
Protocol: CT26 cells were inoculated in a 6-well plate at 2×10^4 cells per well and placed in a 37° C. incubator. After the cells adhered, DMSO solutions (5 μM) of compounds 1 to 8 were added separately, and the incubation was continued for 48 h. The medium was discarded, the cells were rinsed three times with pre-cooled PBS, and the washing solution was discarded. 0.2 nrii, of a cell lysis solution containing a protease inhibitor was added to each well and placed on ice to conduct lysis for 30 min.
After the lysis was completed, a lysate and cell debris were scraped to one side of the Petri dish with a cell scraper, the lysate was transferred to a 1.5 mL Ep tube with a pipette, centrifuged at 4° C. (12,000 rpm/5 min), and a supernatant was collected to determine its protein concentration.
The protein sample was diluted with a 1UPAlysis buffer to a certain concentration, 5×SDS loading buffer was added in a protein amount of 1 μg/μL, incubated on a metal bath at 95° C. for 5 min, cooled to room temperature, and the sample was loaded to an SDS-PAGE electrophoresis gel (5% for stacking gel and 12% for resolving gel). Under a voltage of 90 V, the protein was run to the bottom of the stacking gel to form a straight line, then the voltage was adjusted to 125 V, and the electrophoresis was stopped after the bromophenol blue appeared. […]

[4] = system: mRNA expression of PD-L1 in CT26 cells; assay: PD-L1 mRNA expression in tumor cells by qPCR; format: cell-based, mouse; conditions: 5 μM, 48 h, GAPDH internal reference
Protocol: CT26 cells were inoculated in a 6-well plate at 2×10^5 cells per well and placed in a 37° C. incubator. After the cells adhered, DMSO solutions (5 μM) of the compounds of the present disclosure were added separately, and the incubation was continued for 48 h. Total RNA was lysed and extracted, and reverse transcription and PCR experiments were conducted to detect an RNA level of PD-L1 in CT26 cells, using a GAPDH gene as an internal reference.

[5] = system: HIF-1α expression in CT26 cells; assay: HIF-1α expression in tumor cells by flow cytometry; format: cell-based, mouse; conditions: 5 μM, 24 h, vs blank control
Protocol: CT26 cells were evenly plated in a 6-well plate at 2×10^4 cells per well. After the cells adhered, DMSO solutions (5 μM) of the different compounds of the present disclosure were added separately, and the incubation was continued for 24 h. The medium was discarded, the cells were rinsed three times with PBS, and 0.2 mL of trypsin containing EDTA was added to each well. The digested cells were collected in a flow tube, and a supernatant was removed by centrifugation; the cells were resuspended in a PBS containing 5% goat serum, and an FITC anti-mouse HIF-1α antibody (1 μg/1×10^6 cells) was added, incubated at 4° C. for 30 min, and washed three times with PBS, and subjected to flow detection on-machine.

[6] = CT26 cell line, chemotherapeutic drug in combination with compound 7 (sensitizer 5 μg/mL), 48 h

`O=C1[O][Pt]2([NH][C@@H]3CCCC[C@H]3[NH]2)[O]C1=O` [Eloxatin] was tested, and the “IC50, Compound 7+” value [1, 6] was 2.497 ± 0.185 µg/mL.

In the case of `N.N.O=C([O-])C1(C(=O)[O-])CCC1.[Pt+2]` [Carboplatin], the IC50 [2] is reported as 0.761 ± 0.044 µg/mL and the “IC50, Compound 7+” value [1, 6] is reported as 0.192 ± 0.052 µg/mL.

With `O=C(O)CNC(=O)c1ncc(-c2cccc(Cl)c2)cc1O` [compound 6] the “expression of PD-L1 in tumor cells (Western blot)” value [3] was “best effect”, the “mRNA expression level of PD-L1” value [4] was “best effect” and the “expression of HIF-1α in tumor cells” value [5] was “best effect”.

With `CCc1c2c(nc3ccc(O)cc13)-c1cc3c(c(=O)n1C2)COC(=O)[C@]3(O)CC` [7-ethyl-10-hydroxycamptothecine] the IC50 [2] was 0.066 ± 0.006 µg/mL (≈ 0.168 µM) and the “IC50, Compound 7+” value [1, 6] was 0.025 ± 0.001 µg/mL.

For `N.N.[Cl][Pt][Cl]` [Cis-platinum], the IC50 [2] was 1.28 ± 0.146 µg/mL and the “IC50, Compound 7+” value [1, 6] was 0.571 ± 0.068 µg/mL.

With `O=C1c2c(O)ccc(O)c2C(=O)c2c(NCCNCCO)ccc(NCCNCCO)c21` [Mitoxantrone] the IC50 [2] was 2.12 ± 0.297 µg/mL (≈ 4.76 µM) and the “IC50, Compound 7+” value [1, 6] was 0.815 ± 0.021 µg/mL.

For `CC[C@]1(O)C[C@H]2CN(CCc3c([nH]c4ccccc34)[C@@](C(=O)OC)(c3cc4c(cc3OC)N(C=O)[C@H]3[C@@](O)(C(=O)OC)[C@H](OC(C)=O)[C@]5(CC)C=CCN6CC[C@]43[C@@H]65)C2)C1` [Vincristine], the IC50 [2] was 68.2 ± 2.29 µg/mL (≈ 82.6 µM) and the “IC50, Compound 7+” value [1, 6] was 44.312 ± 1.851 µg/mL.

In the case of `CC1=C(O)C(=O)C=C2C1=CC=C1[C@@]2(C)CC[C@@]2(C)[C@@H]3C[C@](C)(C(=O)O)CC[C@]3(C)CC[C@]12C` [Tripterine], the “IC50, Compound 7+” value [1] is reported as 1.592 ± 0.142 µg/mL and the “IC50, Compound 7−” value [1] is reported as 5.219 ± 0.242 µg/mL.
